Bridge positions count the residues as written; N and C are the ends. Square brackets hold non-standard residues; d marks the D form. Peptide text beside a SMILES is read from it. S5 = C=CCCC[C@](C)(N)C(=O)O; Nle = CCCC[C@H](N)C(=O)O
Tests used:
E. coli = format: cell-based, Escherichia coli
Method in brief: (§1)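 Read-out is visible growth: the MIC is the lowest peptide concentration showing none after 20-24 hours at 37° C. Bacteria in refined (anion-exchanged) Mueller-Hinton broth were seeded at a final 5×10^5 CFU/ml onto water-based peptide serial dilutions.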

S. aureus = format: cell-based, Staphylococcus aureus
Method in brief: as §1

human red blood cells = format: cell-based; settings: red cells of human, 1 h, 25
Method in brief: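 Washed human RBCs as 1% (v/v) suspension in phosphate-buffered saline incubated 1 h at 37° C with serially diluted peptides. Hemoglobin release in supernatant measured spectrophotometrically (570 nm), % hemolysis relative to untreated and 1% Triton-X100 controls; MHC defined as concentration giving less than 1% release.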

B. cereus = format: cell-based, Bacillus cereus
Method in brief: as §1

P. aeruginosa = format: cell-based, Pseudomonas aeruginosa
Method in brief: as §1

Row | MIC E. coli (E. coli) [µg/mL] | MIC S. aureus (S. aureus) [µg/mL] | MIC B. cereus (B. cereus) [µg/mL] | MIC P. aeruginosa (P. aeruginosa) [µg/mL] | SMILES | % Hemolysis at 25 μg/ml (human red blood cells) [%]
1 | 3.1 | >50 | >50 | 12.5 | CCCC[C@H](NC(=O)[C@]1(C)CCCC=CCCC[C@](C)(NC(=O)[C@H](C)NC(=O)[C@H](CCCCN)NC(=O)CNC(=O)[C@H](Cc2ccccc2)NC(=O)[C@H](CCCCN)NC(=O)[C@H](CCCCN)NC(=O)[C@H](CCCCN)NC(=O)[C@H](CO)NC(=O)[C@H](Cc2c[nH]cn2)NC(=O)[C@H](CC(C)C)NC(=O)[C@H](Cc2ccccc2)NC(=O)[C@H](CCCCN)NC(=O)CNC(=O)[C@@H](NC(=O)CN)[C@@H](C)CC)C(=O)N[C@@H](C(C)C)C(=O)NCC(=O)N[C@@H](CCC(=O)O)C(=O)N1)C(=O)N[C@@H](CC(N)=O)C(=O)N[C@@H](CO)C(N)=O [Mag(i + 4)15(A9K), GIGKFLHSKKKFGKAXVGEXBNS] (H-GIGKFLHSKKKFGKA[S5]VGE[S5][Nle]NS-NH2; staple 16-20) | 1.9
2 | 12.5 | >50 | 50 | >50 | CCCC[C@H](NC(=O)[C@]1(C)CCCC=CCCC[C@](C)(NC(=O)[C@H](C)NC(=O)[C@H](CCCCN)NC(=O)CNC(=O)[C@H](Cc2ccccc2)NC(=O)[C@H](CCCCN)NC(=O)[C@H](CCCCN)NC(=O)[C@H](C)NC(=O)[C@H](CO)NC(=O)[C@H](Cc2c[nH]cn2)NC(=O)[C@H](CC(C)C)NC(=O)[C@H](Cc2ccccc2)NC(=O)[C@H](CCC(=O)O)NC(=O)CNC(=O)[C@@H](NC(=O)CN)[C@@H](C)CC)C(=O)N[C@@H](C(C)C)C(=O)NCC(=O)N[C@@H](CCC(=O)O)C(=O)N1)C(=O)N[C@@H](CC(N)=O)C(=O)N[C@@H](CO)C(N)=O [Mag(i + 4)15(K4E), GIGEFLHSAKKFGKAXVGEXBNS] (H-GIGEFLHSAKKFGKA[S5]VGE[S5][Nle]NS-NH2; staple 16-20) | 2.2
3 | 12.5 | 25 | 12.5 | 50 | CCCC[C@H](NC(=O)[C@@H](NC(=O)[C@H](CCC(=O)O)NC(=O)CNC(=O)[C@@H](NC(=O)[C@H](Cc1ccccc1)NC(=O)[C@H](C)NC(=O)[C@H](CCCCN)NC(=O)CNC(=O)[C@H](Cc1ccccc1)NC(=O)[C@H](CCCCN)NC(=O)[C@]1(C)CCCC=CCCC[C@](C)(NC(=O)[C@H](Cc2ccccc2)NC(=O)[C@H](CCCCN)NC(=O)CNC(=O)[C@@H](NC(=O)CN)[C@@H](C)CC)C(=O)N[C@@H](Cc2c[nH]cn2)C(=O)N[C@@H](CO)C(=O)N[C@@H](C)C(=O)N1)C(C)C)[C@@H](C)CC)C(=O)N[C@@H](CC(N)=O)C(=O)N[C@@H](CO)C(N)=O [Mag(i + 4)5] (H-GIGKF[S5]HSA[S5]KFGKAFVGEI[Nle]NS-NH2; staple 6-10) | 13.3
4 | 3.1 | >50 | >50 | 12.5 | CCCC[C@H](NC(=O)[C@]1(C)CCCC=CCCC[C@](C)(NC(=O)[C@H](C)NC(=O)[C@H](CCCCN)NC(=O)CNC(=O)[C@H](Cc2ccccc2)NC(=O)[C@H](CCCCN)NC(=O)[C@H](CCCCN)NC(=O)[C@H](C)NC(=O)[C@H](CO)NC(=O)[C@H](Cc2c[nH]cn2)NC(=O)[C@H](CCCCN)NC(=O)[C@H](Cc2ccccc2)NC(=O)[C@H](CCCCN)NC(=O)CNC(=O)[C@@H](NC(=O)CN)[C@@H](C)CC)C(=O)N[C@@H](C(C)C)C(=O)NCC(=O)N[C@@H](CCC(=O)O)C(=O)N1)C(=O)N[C@@H](CC(N)=O)C(=O)N[C@@H](CO)C(N)=O [Mag(i + 4)15(L6K), GIGKFKHSAKKFGKAXVGEXBNS] (H-GIGKFKHSAKKFGKA[S5]VGE[S5][Nle]NS-NH2; staple 16-20) | 1.9

From patent US20200231638A1, “STABILIZED ANTI-MICROBIAL PEPTIDES” (priority 2015, published 2020)
